Laboratory results reported in paper PMC12715788, “Unraveling the Potential of Small Molecule Heparin Glycomimetics in Neuroregenerative Therapeutics” (Journal of the American Chemical Society, 2025).
“And” between values parts separate entries of the source, which are not always exact repeats. Equal values may be shown once. “Also recorded” adds a separate entry of the source.

Legend:
FGF-2 [1] = target: T1, FGF-2 (Homo sapiens, UniProt P09038); experiment: BLI competition assay with immobilized native HS for FGF-2 binding; settings: for competition with immobilized native HS for FGF-2 binding, signal intensity: FGF-2 50 nM premixed with varying concentrations; for IC50: FGF-2 50 nM, fixed association time t = 240 s, read-out: Apparent IC50(t), competition with immobilized native HS for FGF-2 binding
Description: We next examined the functional relevance of the synthetic HS glycomimetics by testing their ability to compete with native HS for FGF-2 binding using competition assays. Although direct binding assays measure the intrinsic affinity of HS glycomimetics for FGF-2, they are limited in representing the complex, multimolecular environment of biological systems. In vivo, FGF-2 activity is tightly regulated by its interactions with GAGs, which are abundant on cell surfaces and in the ECM. These interactions stabilize FGF-2 and facilitate its dimerization with FGF receptors (FGFRs), a requirement for effective signal transduction. , Thus, therapeutic candidates targeting FGF-2 must be evaluated not only for direct binding but also for their ability to modulate or disrupt GAG-mediated interactions. Therefore, we performed competition assays in which native HS was immobilized on the sensor surface. Solutions containing a fixed concentration of FGF-2 (50 nM) were premixed with varying concentrations of HS glycomimetics, functioning as inhibitors in this context, (M1, D1, D2, D3, and T1) and also with the heparin hexasaccharide (H1) (GlcNS6S-GlcA-GlcNS3S6S-IdoA2S-GlcNS6S-GlcA), a well-studied HS glycomimetic in the literature, as a positive control (Figure B). […] The progressive decrease in signal intensity with increasing inhibitor concentration directly reflects competition with immobilized HS for FGF-2 binding.

FGF-1 = FGF-1 (Homo sapiens, UniProt P05230); experiment: Far-UV CD spectroscopy and CD thermal denaturation; settings: CD thermal denaturation 10–90 °C; protein with sugar, 1:3 molar ratio
Description: (§1) To select a lead compound, we complemented the affinity data with a series of studies evaluating the structural and functional implications of protein-HS glycomimetic interactions. We assessed the therapeutic safety profile of our HS glycomimetics. We also employed circular dichroism (CD) spectroscopy to assess secondary structural changes in protein conformation upon binding to native HS and HS glycomimetics. Since native HS alone produces only a minimal signal, it was ensured that its contribution would not interfere with protein-sugar complex spectra. Therefore, only the far-UV CD spectra of bare proteins and their sugar complexes were recorded. […] Upon incubation with sugars (1:3 molar ratio), significant spectral changes were observed, indicating sugar-induced alterations in secondary structure (Figure A).
(§2) We also evaluated the thermal stability of the proteins and their sugar complexes by CD-based thermal denaturation experiments. The spectra were recorded across a temperature range of 10–90 °C (Figure B). For all proteins except AT-III, the unfolding profiles were analyzed to determine the melting temperature (T m), representing the midpoint of the transition from the folded to the unfolded state, an indicator of structural integrity and resistance to thermal denaturation. The calculated values are compiled in Table .

FGF-2 [2] = target: T1, FGF-2; experiment: Far-UV CD spectroscopy and CD thermal denaturation; settings: CD thermal denaturation 10–90 °C; protein with sugar, 1:3 molar ratio
Description: as §1, §2

[3] = tested on: citrated pooled rat plasma; experiment: Activated partial thromboplastin time (aPTT) assay; settings: citrated pooled rat plasma; highest concentration tested; control 22 s
Description: To complement these findings, we performed an activated partial thromboplastin time (aPTT) assay in citrated pooled rat plasma to assess the overall impact of the compounds on the intrinsic coagulation pathway. This global clotting assay measures the time required for fibrin formation and is sensitive to anticoagulant effects. Figure F,G compare the effects of UFH, heparan sulfate, Fondaparinux, and the synthetic glycomimetics when supplemented into citrated plasma. […] As expected, UFH produced a strong, concentration-dependent anticoagulant response, prolonging the mean clotting time to 271 s at the highest concentration tested, while heparan sulfate and Fondaparinux induced weaker but measurable effects (83 and 37 s, respectively). […] The results further confirm that selective sulfation patterns can decouple GF recognition from anticoagulant function, an essential prerequisite for their translational application in regenerative medicine. […] These interactions are in line with nonspecific electrostatic binding, a feature of highly sulfated oligosaccharides known to engage different proteins via charge-based, rather than specific, biologically targeted interactions. Thus, to avoid potential off-target effects associated with highly sulfated analogues, we selected the disaccharide D2 for subsequent biological experiments.

Factor Xa = experiment: AT-III-mediated chromogenic substrate assay; type: biochemical; settings: absorbance at 405 nm
Description: (§3) Active coagulation factors cleave chromogenic peptide substrates, therefore producing p-nitroaniline, a yellow-colored product with a detectable absorbance signal at λ = 405 nm. Inhibitors like heparin-AT-III complexes decrease enzyme activity and so lower absorbance readings.

AT-III = AT-III (Homo sapiens, UniProt P01008); experiment: BLI binding assay, sugars immobilized, protein as analyte
Protocol: We evaluated the binding affinity of native HS and synthetic HS glycomimetics (M1, D1, D2, D3, and T1) to these proteins using biolayer interferometry (BLI). The terminal amino groups of the sugars were immobilized onto the sensor surface using standard amine coupling chemistry, and binding assays were performed by introducing the proteins as analytes at varying concentrations (Figure A). The equilibrium dissociation constants (K D) were determined using the steady-state affinity curve fitting.

Factor IIa (thrombin) = experiment: AT-III-mediated chromogenic substrate assay; type: biochemical; settings: absorbance at 405 nm
Description: as §3

[4] = tested on: rat dissociated hippocampal neurons; experiment: Neurite morphometry in dissociated hippocampal neurons; type: cell-based; settings: 24 h treatment, 1 day in vitro, D2 1 μM, FGF-2 40 ng/mL, mean ± SEM
Protocol: In the pursuit of this, we used rat dissociated hippocampal neurons as an in vitro model system. We assessed the impact of HS glycomimetics on neuronal morphology, using immunofluorescence imaging and quantitative morphometric analysis, and on synaptic functionality through electrophysiological monitoring of spontaneous neuronal activity.
During the first day of differentiation in vitro (Table S7.1 in SI), neurons were treated for 24 h with either control medium, glycomimetic D2 (1 μM), FGF-2 (40 ng/mL) alone, or a combination of FGF-2 and D2 (40 ng/mL and 1 μM, respectively). After treatments, cultures were fixed and immuno-labeled with antibodies against the neuronal marker β-Tubulin III to study cell morphology. […] Quantitative analysis further corroborated these observations (Figure B–C).

hippocampal neurons = experiment: Patch clamp recording of spontaneous synaptic activity in hippocampal neurons; type: cell-based, rat; settings: 24 h treatment, neurons at 8 days in vitro, voltage clamp −58 mV; mean ± SEM
Description: In another set of experiments, we investigated the impact of D2+FGF-2, with respect to that of FGF-2 alone, on the formation of functionally active neuronal networks. To this aim, we used hippocampal neurons developed in vitro for 1 week, from which, through the single-cell patch clamp technique, we recorded in voltage clamp mode spontaneous synaptic activity. […] While neurons treated with FGF-2 alone presented sPSCs of fluctuating amplitude (in average 42 ± 5 pA) at a frequency of 1.23 ± 0.38 Hz, the coapplication of D2 with the growth factor induced a statistically significant enhancement of both these values (for D2+FGF-2, sPSCs frequency: 2.52 ± 0.47 Hz, and sPSCs amplitude: 75 ± 14 pA, p < 0.05 FGF-2 vs D2+FGF-2, Figure E–F).

T1 sequence (P09038 134-288 limits assumed, species assumed): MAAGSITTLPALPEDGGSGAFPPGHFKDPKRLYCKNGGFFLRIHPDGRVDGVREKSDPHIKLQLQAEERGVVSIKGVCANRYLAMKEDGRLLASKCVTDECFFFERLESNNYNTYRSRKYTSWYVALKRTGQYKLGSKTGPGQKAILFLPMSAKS
Sequence of FGF-1 (P05230 whole entry, species assumed): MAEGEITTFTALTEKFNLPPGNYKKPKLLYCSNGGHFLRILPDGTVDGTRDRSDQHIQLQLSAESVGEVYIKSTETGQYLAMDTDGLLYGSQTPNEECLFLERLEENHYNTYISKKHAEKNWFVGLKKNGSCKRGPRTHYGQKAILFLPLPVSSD
Sequence of AT-III (P01008 33-464): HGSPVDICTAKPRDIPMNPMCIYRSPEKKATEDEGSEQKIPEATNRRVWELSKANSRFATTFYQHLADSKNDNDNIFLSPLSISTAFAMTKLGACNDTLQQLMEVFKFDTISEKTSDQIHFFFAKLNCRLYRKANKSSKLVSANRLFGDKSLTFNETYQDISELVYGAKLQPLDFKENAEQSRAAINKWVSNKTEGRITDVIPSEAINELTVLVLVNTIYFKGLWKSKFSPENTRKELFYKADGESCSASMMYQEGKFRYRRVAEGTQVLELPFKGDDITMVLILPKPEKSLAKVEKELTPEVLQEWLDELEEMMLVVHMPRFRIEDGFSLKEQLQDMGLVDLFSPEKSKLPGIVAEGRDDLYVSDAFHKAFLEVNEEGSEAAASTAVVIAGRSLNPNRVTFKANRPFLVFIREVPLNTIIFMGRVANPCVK

Compound	competition with immobilized native HS for FGF-2 binding, signal intensity (FGF-2 [1])	FGF-1 Sample Tm (FGF-1)	FGF-2 Sample Tm (FGF-2 [2])	aPTT mean clotting time [3]	IC50 (FGF-2 [1])	also measured
CC(=O)N[C@H]1[C@@H](OCCN)O[C@H](CO)[C@@H](O[C@@H]2O[C@@H](C(=O)O)[C@@H](OS(=O)(=O)O)[C@H](O)[C@H]2OS(=O)(=O)O)[C@@H]1O [D1, IdoA2S4S-GlcNAc]	much weaker effect; also recorded: minimal inhibition	44.5 °C and 44.5 ± 0.4 °C	51.6 °C and 51.6 ± 1.9 °C	22.5 s	–	–
NCCCCCOC1OC(COS(=O)(=O)O)C(OC2OC(C(=O)NNS(=O)(=O)O)C(OS(=O)(=O)O)C(O)C2OS(=O)(=O)O)C(O)C1NS(=O)(=O)O (stereo not shown) [D3, GlcANS6S-GlcNS6S]	dose-dependent reduction in signal intensity	45.3 °C and 45.3 ± 0.3 °C	54.2 °C and 54.2 ± 1.2 °C	25.3 s	84500 nM	–
CO[C@H]1O[C@H](COS(=O)(=O)O)[C@@H](O[C@@H]2O[C@@H](C(=O)O)[C@@H](O[C@H]3O[C@H](COS(=O)(=O)O)[C@@H](O[C@@H]4O[C@H](C(=O)O)[C@@H](O[C@H]5O[C@H](COS(=O)(=O)O)[C@@H](O)[C@H](O)[C@H]5NS(=O)(=O)O)[C@H](O)[C@H]4O)[C@H](OS(=O)(=O)O)[C@H]3NS(=O)(=O)O)[C@H](O)[C@H]2OS(=O)(=O)O)[C@H](O)[C@H]1NS(=O)(=O)O [Fondaparinux, reference compound]	–	–	–	37 s	–	AT-III-mediated Factor Xa activity (Factor Xa): selectively inhibited
CC(=O)N[C@H]1[C@@H](OCCN)O[C@H](COS(=O)(=O)O)[C@@H](O)[C@@H]1O [M1, GlcNAc6S]	much weaker effect; also recorded: minimal inhibition	43.3 °C and 43.3 ± 0.4 °C	50.7 °C and 50.7 ± 0.2 °C	22 s	–	–
NC[C@H]1O[C@H](O[C@H]2[C@H](OS(=O)(=O)O)[C@@H](OS(=O)(=O)O)[C@@H](O[C@H]3[C@H](OS(=O)(=O)O)[C@@H](OS(=O)(=O)O)[C@@H](O[C@H]4[C@H](OS(=O)(=O)O)[C@@H](OS(=O)(=O)O)[C@@H]5OC[C@H]4O5)O[C@@H]3COS(=O)(=O)O)O[C@@H]2COS(=O)(=O)O)[C@H](OS(=O)(=O)O)[C@@H](OS(=O)(=O)O)[C@@H]1OS(=O)(=O)O [T1, Glc2S3S-Glc2S3S6S-Glc2S3S6S-Glc2S3S]	dose-dependent reduction in signal intensity	46.3 °C and 46.3 ± 0.5 °C	59.3 °C and 59.3 ± 2.2 °C	28.5 s	900 nM and 910 nM	binding to AT-III (AT-III): bound to AT-III; AT-III-mediated Factor IIa activity (Factor IIa (thrombin)): slight interactions; AT-III-mediated Factor Xa activity (Factor Xa): slight interactions
FGF-2: fibroblast growth factor-2, basic FGF, applied alone at 40 ng/mL	–	–	–	–	–	number of neurites emerging from the cell body ([4]; control 3.6 ± 0.22): 5.4 ± 0.28 neurites per neuron; length of the longest neurite ([4]; control 38 ± 2): 45 ± 4 μm; sPSCs amplitude (hippocampal neurons): 42 ± 5 pA; sPSCs frequency (hippocampal neurons): 1.23 ± 0.38 Hz
GlcNS6S-GlcA-GlcNS3S6S-IdoA2S-GlcNS6S-GlcA [H1, reference compound]	–	–	–	–	2610 nM	–
